Experimental data as given in patent US7569570B2, “Thienopyrimidines, process for preparing the same and use thereof” (Takeda Pharmaceutical Company Limited, priority 2002, dated 2009).
Where a name gives a salt, the structure may show the parent alone.

Columns and labels:
Rat GnRH Receptor = target: T1, Rat GnRH Receptor (Rattus norvegicus, UniProt P30969); experiment: 125I-leuprorelin binding inhibition, rat pituitary anterior lobe membrane fraction; settings: 4° C. for 90 minutes, Hill plot
T1 construct: Anterior lobes of the pituitary glands were isolated from forty Wistar rats; from tissue; host or cells: rat (Wistar, male, 8 weeks) anterior pituitary membrane fraction
T1 sequence (P30969 1-327): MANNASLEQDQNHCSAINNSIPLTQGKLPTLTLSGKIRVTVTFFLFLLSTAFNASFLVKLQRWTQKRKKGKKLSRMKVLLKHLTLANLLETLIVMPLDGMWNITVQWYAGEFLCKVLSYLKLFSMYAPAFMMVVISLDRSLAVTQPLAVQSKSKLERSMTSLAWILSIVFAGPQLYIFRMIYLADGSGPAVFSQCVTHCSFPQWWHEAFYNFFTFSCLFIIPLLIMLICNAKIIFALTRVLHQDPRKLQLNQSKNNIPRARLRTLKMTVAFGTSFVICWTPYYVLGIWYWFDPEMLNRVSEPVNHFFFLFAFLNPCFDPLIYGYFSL
Experimental: (§1) (1) Preparation of ^125I-Leuprorelin
(§2) To a tube containing 10 μl of a 3×10^−4 M aqueous solution of leuprorelin and 10 μl of 0.01 mg/ml lactoperoxidase, 10 μl (37 MBq) of a solution of Na^125I was added. After stirring, 10 μl of 0.001% H2O2 was added, and a reaction was carried out at room temperature for 20 minutes. By adding 700 μl of a 0.05% TFA (trifluoroacetic acid) solution, the reaction was stopped, and the solution was purified by reversed-phase HPLC. The HPLC conditions are shown below. ^125I-leuprorelin was eluted at a retention time of 26 to 27 minutes.
(2) Preparation of a Pituitary Anterior Lobe Membrane […]
(§3) When the rat pituitary anterior lobe membrane fraction was used, the reaction was conducted at 4° C. for 90 minutes. […] After the filtration, the radioactivity of ^125I-leuprorelin remaining on the filter paper was measured with a γ-counter.
(§4) (TB−SB)/(TB−NSB)×100 (SB: radioactivity when the compound is added, TB: maximum binding radioactivity, NSB: non-specific binding radioactivity) was calculated to find the binding inhibition rate (%) of each test substance. […]

Human GnRH Receptor = target: T2, Human GnRH Receptor (Homo sapiens, UniProt P30968); experiment: 125I-leuprorelin binding inhibition, membrane fraction of human GnRH receptor-expressing CHO cells; settings: 25° C. for 60 minutes, Hill plot
T2 construct: expressed in transfected cells; host or cells: CHO (Chinese hamster ovary) cells
T2 sequence (P30968 1-328): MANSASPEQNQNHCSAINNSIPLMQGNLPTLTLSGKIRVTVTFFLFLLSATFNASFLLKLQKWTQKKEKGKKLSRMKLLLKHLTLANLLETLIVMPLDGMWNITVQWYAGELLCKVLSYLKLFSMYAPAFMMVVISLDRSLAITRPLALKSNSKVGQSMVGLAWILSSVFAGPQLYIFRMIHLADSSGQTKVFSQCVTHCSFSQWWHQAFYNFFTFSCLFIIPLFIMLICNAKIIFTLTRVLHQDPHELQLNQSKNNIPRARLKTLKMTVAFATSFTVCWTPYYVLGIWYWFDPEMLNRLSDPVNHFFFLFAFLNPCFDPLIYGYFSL
Experimental: as §1, §2
(3) Preparation of a CHO (Chinese Hamster Ovarian) Cell Membrane Fraction Containing Human GnRH Receptor
Human GnRH receptor-expressing CHO cells (10^9 cells) were suspended in phosphate-buffered saline supplemented with 5 mM EDTA (PBS-EDTA) and centrifuged at 100×g for 5 minutes. […]
as §3, §4

CCNC(=O)Nc1ccc(-c2sc3c(c2CN(C)CCOC(C)C)c(=O)n(-c2ccccc2)c(=O)n3Cc2c(F)cccc2F)cc1 [Example 110, N-[4-(1-(2,6-difluorobenzyl)-[(2-(2-propoxy)ethyl(methyl)amino}methyl]-2,4-dioxo-3 phenyl-1,2,3,4-tetrahydrothieno[2,3-d]pyrimidin-6-yl)phenyl]-N′-ethylurea]
melting point: 224 °C | IC50 (Rat GnRH Receptor): 0.2 µM | IC50 (Human GnRH Receptor): < 0.0001 µM

CCNC(=O)Nc1ccc(-c2sc3c(c2CN(C)CCOC)c(=O)n(-c2ccccc2)c(=O)n3Cc2c(F)cccc2F)cc1 [Example 112, N-[4-(1-(2,6-difluorobenzyl)-5-{[(2-methoxyethyl)(methyl)amino]methyl}-2,4-dioxo-3-phenyl-1,2,3,4-tetrahydrothieno[2,3-d]pyrimidin-6-yl)phenyl]-N′-ethylurea 1 hydrochloride]
IC50 (Rat GnRH Receptor): 0.2 µM | IC50 (Human GnRH Receptor): 0.0001 µM
